Assay: mn = molality of the nth substance listed, in mol/kg
Conditions: 101.3 kPa, Liquid; for viscosity: Capillary tube (Ostwald / Ubbelohde) method; for speed of sound: Frequency=4 MHz, Linear variable-path acoustic interferometer; for mass density: Vibrating tube method

N=C(N)NCCC[C@H](N)C(=O)O [L-arginine] + O
Conditions	mass density [kg/m3]	speed of sound [m/s]	viscosity [mPa·s]
293.15 K, m1 = 0.05014	1000.72	1487.6	1.032
293.15 K, m1 = 0.1001	1003.17	1492.7	1.054
293.15 K, m1 = 0.15	1005.58	1497.9	1.08
293.15 K, m1 = 0.2	1007.92	1503.2	1.107
293.15 K, m1 = 0.25	1010.21	1508.6	1.13
293.15 K, m1 = 0.3001	1012.47	1514.1	1.155
298.15 K, m1 = 0.05014	999.556	1502.4	0.9151
298.15 K, m1 = 0.1001	1001.99	1507.5	0.9358
298.15 K, m1 = 0.15	1004.36	1512.7	0.9586
298.15 K, m1 = 0.2	1006.68	1518	0.9766
298.15 K, m1 = 0.25	1008.94	1523.4	1
298.15 K, m1 = 0.3001	1011.17	1528.9	1.021
303.15 K, m1 = 0.05014	998.142	1514.5	0.8179
303.15 K, m1 = 0.1001	1000.55	1519.6	0.8355
303.15 K, m1 = 0.15	1002.9	1524.8	0.8555
303.15 K, m1 = 0.2	1005.19	1530.1	0.8718
303.15 K, m1 = 0.25	1007.45	1535.5	0.8909
303.15 K, m1 = 0.3001	1009.67	1541	0.9084
308.15 K, m1 = 0.05014	996.503	1524.3	0.7362
308.15 K, m1 = 0.1001	998.883	1529.4	0.7512
308.15 K, m1 = 0.15	1001.21	1534.6	0.7694
308.15 K, m1 = 0.2	1003.48	1539.9	0.7828
308.15 K, m1 = 0.25	1005.7	1545.3	0.7987
308.15 K, m1 = 0.3001	1007.89	1550.8	0.8144
313.15 K, m1 = 0.05014	994.671	1533.7	0.6673
313.15 K, m1 = 0.1001	997.036	1538.8	0.6808
313.15 K, m1 = 0.15	999.344	1544	0.6951
313.15 K, m1 = 0.2	1001.6	1549.3	0.7067
313.15 K, m1 = 0.25	1003.8	1554.7	0.7224
313.15 K, m1 = 0.3001	1005.97	1560.3	0.7345

N[C@@H](CO)C(=O)O [L-serine] + O
Conditions	mass density [kg/m3]	speed of sound [m/s]	viscosity [mPa·s]
293.15 K, m1 = 0.05002	1000.49	1485.7	1.011
293.15 K, m1 = 0.1001	1002.74	1488.9	1.022
293.15 K, m1 = 0.15	1004.96	1492.2	1.034
293.15 K, m1 = 0.2003	1007.18	1495.6	1.046
293.15 K, m1 = 0.2502	1009.36	1499.1	1.058
293.15 K, m1 = 0.2999	1011.52	1502.7	1.069
298.15 K, m1 = 0.05002	999.314	1500.4	0.8972
298.15 K, m1 = 0.1001	1001.55	1503.5	0.907
298.15 K, m1 = 0.15	1003.74	1506.7	0.9165
298.15 K, m1 = 0.2003	1005.94	1510	0.9277
298.15 K, m1 = 0.2502	1008.1	1513.4	0.9379
298.15 K, m1 = 0.2999	1010.23	1516.9	0.9477
303.15 K, m1 = 0.05002	997.896	1512.4	0.8025
303.15 K, m1 = 0.1001	1000.1	1515.4	0.8115
303.15 K, m1 = 0.15	1002.27	1518.5	0.8204
303.15 K, m1 = 0.2003	1004.44	1521.7	0.8295
303.15 K, m1 = 0.2502	1006.56	1525	0.8377
303.15 K, m1 = 0.2999	1008.66	1528.4	0.8466
308.15 K, m1 = 0.05002	996.254	1522.1	0.723
308.15 K, m1 = 0.1001	998.433	1525	0.7313
308.15 K, m1 = 0.15	1000.58	1528	0.7386
308.15 K, m1 = 0.2003	1002.72	1531.1	0.7463
308.15 K, m1 = 0.2502	1004.83	1534.3	0.7535
308.15 K, m1 = 0.2999	1006.92	1537.6	0.7611
313.15 K, m1 = 0.05002	994.421	1531.4	0.6558
313.15 K, m1 = 0.1001	996.578	1534.2	0.6627
313.15 K, m1 = 0.15	998.702	1537.1	0.6688
313.15 K, m1 = 0.2003	1000.82	1540.2	0.6756
313.15 K, m1 = 0.2502	1002.91	1543.3	0.682
313.15 K, m1 = 0.2999	1004.97	1546.6	0.6881

Cc1ncc(C[n+]2csc(CCO)c2C)c(N)n1.Cl.[Cl-] [thiamine hydrochloride] + O
Conditions	mass density [kg/m3]	speed of sound [m/s]	viscosity [mPa·s]
293.15 K, m1 = 0.0497	1003.19	1490.4	1.048
293.15 K, m1 = 0.0502	1003.19	–	1.048
293.15 K, m1 = 0.0503	–	1490.4	–
293.15 K, m1 = 0.1003	1008.06	1498.5	1.071
293.15 K, m1 = 0.1008	1008.06	1498.5	1.071
293.15 K, m1 = 0.1498	1013.01	1507.2	1.101
293.15 K, m1 = 0.1505	1013.01	1507.2	1.101
298.15 K, m1 = 0.0497	1001.99	1504.1	0.9193
298.15 K, m1 = 0.0502	1001.99	–	0.9193
298.15 K, m1 = 0.0503	–	1504.1	–
298.15 K, m1 = 0.1003	1006.87	1512.6	0.954
298.15 K, m1 = 0.1008	1006.87	1512.6	0.954
298.15 K, m1 = 0.1498	1011.77	1520.8	0.9913
298.15 K, m1 = 0.1505	1011.77	1520.8	0.9913
303.15 K, m1 = 0.0497	1000.56	1516.7	0.8251
303.15 K, m1 = 0.0502	1000.56	–	0.8251
303.15 K, m1 = 0.0503	–	1516.7	–
303.15 K, m1 = 0.1003	1005.44	1524.1	0.8569
303.15 K, m1 = 0.1008	1005.44	1524.1	0.8569
303.15 K, m1 = 0.1498	1010.29	1532.7	0.8892
303.15 K, m1 = 0.1505	1010.29	1532.7	0.8892
308.15 K, m1 = 0.0497	998.93	1526.9	0.7565
308.15 K, m1 = 0.0502	998.93	–	0.7565
308.15 K, m1 = 0.0503	–	1526.9	–
308.15 K, m1 = 0.1003	1003.79	1533.7	0.7753
308.15 K, m1 = 0.1008	1003.79	1533.7	0.7753
308.15 K, m1 = 0.1498	1008.62	1542.5	0.8015
308.15 K, m1 = 0.1505	1008.62	1542.5	0.8015
313.15 K, m1 = 0.0497	997.193	1535.5	0.6772
313.15 K, m1 = 0.0502	997.193	–	0.6772
313.15 K, m1 = 0.0503	–	1535.5	–
313.15 K, m1 = 0.1003	1002	1542.8	0.7057
313.15 K, m1 = 0.1008	1002	1542.8	0.7057
313.15 K, m1 = 0.1498	1006.76	1551.1	0.7388
313.15 K, m1 = 0.1505	1006.76	1551.1	0.7388

O [water] + Cc1ncc(C[n+]2csc(CCO)c2C)c(N)n1.Cl.[Cl-]
m2 = 0
Conditions	mass density [kg/m3]	speed of sound [m/s]	viscosity [mPa·s]
293.15 K	–	–	1.002
298.15 K	–	–	0.8906
303.15 K	–	–	0.7975
308.15 K	994.059	1519.3	0.7193
313.15 K	–	1528.7	0.6531

O [water] + N=C(N)NCCC[C@H](N)C(=O)O
m2 = 0
Conditions	mass density [kg/m3]	speed of sound [m/s]	viscosity [mPa·s]
293.15 K	–	–	1.002
298.15 K	–	–	0.8906
303.15 K	–	–	0.7975
308.15 K	994.059	1519.3	0.7193
313.15 K	–	1528.7	0.6531

O [water] + N[C@@H](CO)C(=O)O
m2 = 0
Conditions	mass density [kg/m3]	speed of sound [m/s]	viscosity [mPa·s]
293.15 K	–	–	1.002
298.15 K	–	–	0.8906
303.15 K	–	–	0.7975
308.15 K	994.059	1519.3	0.7193
313.15 K	–	1528.7	0.6531

From the NIST ThermoML archive (doi:10.1016/j.jct.2019.03.039)
